Experimental data reported in PMC6430017, “Structural and chemical insights into the covalent-allosteric inhibition of the protein kinase Akt” (Chemical Science, 2019).
Like-named read-outs stand apart in the source and are kept apart here.

Legend:
Test in all cases: SelectScreen Z'LYTE kinase profiling
Format in all cases: biochemical
AKT2 (PKB beta) = AKT2 (PKB beta) (Homo sapiens, UniProt P31751)
SRC = SRC (Homo sapiens, UniProt P12931); settings: ATP at apparent KM
Description: (§1) protein kinases at a compound concentration of 1 µM. Measurements were performed in duplicates
(§2) and at the particular apparent ATP KM of each individual kinase employing the activity based Z’LYTE®
(§3) kinase assay of the SelectScreen® Kinase Profiling Services (ThermoFisher Scientific).
(§4) kinases at a compound concentration of 1 µM. Measurements were performed in duplicates and at
(§5) the particular apparent ATP KM of each individual kinase employing the activity based Z’LYTE® kinase
(§6) assay of the SelectScreen® Kinase Profiling Services (ThermoFisher Scientific).

PRKCE (PKC epsilon) = molecular target: T1, PRKCE (PKC epsilon) (Homo sapiens, UniProt Q02156); settings: ATP at apparent KM
T1 sequence (Q02156 1-737): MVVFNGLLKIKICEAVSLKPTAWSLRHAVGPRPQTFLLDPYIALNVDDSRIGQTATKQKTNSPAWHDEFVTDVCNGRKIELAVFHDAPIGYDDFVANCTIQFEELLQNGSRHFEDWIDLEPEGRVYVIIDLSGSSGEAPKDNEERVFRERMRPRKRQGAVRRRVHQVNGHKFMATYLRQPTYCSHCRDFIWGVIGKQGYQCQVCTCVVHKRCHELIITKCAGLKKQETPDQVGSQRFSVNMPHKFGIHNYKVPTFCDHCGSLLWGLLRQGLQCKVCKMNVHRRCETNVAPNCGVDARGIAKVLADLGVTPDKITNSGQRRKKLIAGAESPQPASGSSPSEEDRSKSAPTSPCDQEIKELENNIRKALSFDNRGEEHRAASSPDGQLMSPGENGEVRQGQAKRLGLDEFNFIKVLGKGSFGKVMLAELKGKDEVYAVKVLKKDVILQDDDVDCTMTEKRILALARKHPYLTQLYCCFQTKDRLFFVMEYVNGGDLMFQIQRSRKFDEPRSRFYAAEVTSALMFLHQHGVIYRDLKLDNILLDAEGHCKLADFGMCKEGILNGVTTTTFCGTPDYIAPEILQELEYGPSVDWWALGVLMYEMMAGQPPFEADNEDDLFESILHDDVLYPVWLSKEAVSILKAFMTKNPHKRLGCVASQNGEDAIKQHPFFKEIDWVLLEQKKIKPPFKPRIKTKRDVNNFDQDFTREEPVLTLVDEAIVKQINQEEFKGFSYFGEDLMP
Description: as §1, §2, §3, §4, §5, §6

RET = RET (Homo sapiens, UniProt P07949); settings: ATP at apparent KM
Chain of RET (P07949 29-1114): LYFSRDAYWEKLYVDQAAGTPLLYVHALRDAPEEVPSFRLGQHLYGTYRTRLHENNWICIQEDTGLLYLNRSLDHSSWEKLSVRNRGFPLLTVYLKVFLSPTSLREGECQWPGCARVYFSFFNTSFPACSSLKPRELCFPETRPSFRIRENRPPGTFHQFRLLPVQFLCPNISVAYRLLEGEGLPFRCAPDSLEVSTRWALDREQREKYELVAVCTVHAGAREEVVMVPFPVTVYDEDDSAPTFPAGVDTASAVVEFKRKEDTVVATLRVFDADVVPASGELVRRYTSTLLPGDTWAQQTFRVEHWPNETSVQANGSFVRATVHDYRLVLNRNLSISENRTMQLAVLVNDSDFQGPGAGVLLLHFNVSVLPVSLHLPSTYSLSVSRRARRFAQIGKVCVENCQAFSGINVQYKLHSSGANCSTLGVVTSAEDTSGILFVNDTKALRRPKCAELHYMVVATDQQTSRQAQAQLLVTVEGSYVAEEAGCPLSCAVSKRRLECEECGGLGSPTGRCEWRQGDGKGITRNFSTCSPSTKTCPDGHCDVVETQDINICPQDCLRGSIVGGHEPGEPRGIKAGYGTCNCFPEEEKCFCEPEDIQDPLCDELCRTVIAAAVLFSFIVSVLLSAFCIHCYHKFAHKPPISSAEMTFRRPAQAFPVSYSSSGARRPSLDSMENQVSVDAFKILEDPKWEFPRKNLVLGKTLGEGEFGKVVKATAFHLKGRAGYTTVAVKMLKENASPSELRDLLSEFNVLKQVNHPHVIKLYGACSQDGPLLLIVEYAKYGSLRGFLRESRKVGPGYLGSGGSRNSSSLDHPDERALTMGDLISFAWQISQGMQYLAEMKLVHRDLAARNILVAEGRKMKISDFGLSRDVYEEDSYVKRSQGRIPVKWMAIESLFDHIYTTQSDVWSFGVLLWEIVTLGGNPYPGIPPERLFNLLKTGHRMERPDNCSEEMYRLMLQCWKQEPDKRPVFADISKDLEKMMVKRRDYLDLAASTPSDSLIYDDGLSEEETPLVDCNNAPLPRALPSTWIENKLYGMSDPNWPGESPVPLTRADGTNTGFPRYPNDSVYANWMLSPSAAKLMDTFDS
Description: as §1, §2, §3, §4, §5, §6

FRAP1 (mTOR) = FRAP1 (mTOR) (Homo sapiens, UniProt P42345); settings: ATP at apparent KM
Description: as §1, §2, §3, §4, §5, §6

FGFR1 = FGFR1 (Homo sapiens, UniProt P11362); settings: ATP at apparent KM
Chain of FGFR1 (P11362 22-822): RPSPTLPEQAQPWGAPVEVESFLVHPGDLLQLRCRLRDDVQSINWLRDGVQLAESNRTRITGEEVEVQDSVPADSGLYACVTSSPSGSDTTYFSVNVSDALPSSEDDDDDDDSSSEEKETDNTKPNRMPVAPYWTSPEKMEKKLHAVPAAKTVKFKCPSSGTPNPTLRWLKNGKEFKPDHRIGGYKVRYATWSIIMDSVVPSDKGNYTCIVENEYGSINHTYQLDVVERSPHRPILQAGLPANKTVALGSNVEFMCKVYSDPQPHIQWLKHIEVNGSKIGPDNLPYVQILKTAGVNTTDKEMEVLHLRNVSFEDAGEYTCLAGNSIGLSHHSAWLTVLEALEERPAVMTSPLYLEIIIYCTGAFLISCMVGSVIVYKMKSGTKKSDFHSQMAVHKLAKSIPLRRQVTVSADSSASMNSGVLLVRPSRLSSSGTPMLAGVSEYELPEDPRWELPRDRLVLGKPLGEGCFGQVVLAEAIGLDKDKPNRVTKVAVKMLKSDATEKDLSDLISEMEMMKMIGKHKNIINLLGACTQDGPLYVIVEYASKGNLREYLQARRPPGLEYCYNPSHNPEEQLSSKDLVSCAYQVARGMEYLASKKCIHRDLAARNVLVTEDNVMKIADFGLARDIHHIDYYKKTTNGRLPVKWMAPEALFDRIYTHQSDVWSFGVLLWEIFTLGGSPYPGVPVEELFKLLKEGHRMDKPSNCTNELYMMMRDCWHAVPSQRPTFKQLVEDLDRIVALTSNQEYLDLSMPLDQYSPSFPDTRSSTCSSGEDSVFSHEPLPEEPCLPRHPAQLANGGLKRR
Description: as §1, §2, §3, §4, §5, §6

SGK2 = molecular target: T2, SGK2 (Homo sapiens, UniProt Q9HBY8); settings: ATP at apparent KM
T2 sequence (Q9HBY8 1-367): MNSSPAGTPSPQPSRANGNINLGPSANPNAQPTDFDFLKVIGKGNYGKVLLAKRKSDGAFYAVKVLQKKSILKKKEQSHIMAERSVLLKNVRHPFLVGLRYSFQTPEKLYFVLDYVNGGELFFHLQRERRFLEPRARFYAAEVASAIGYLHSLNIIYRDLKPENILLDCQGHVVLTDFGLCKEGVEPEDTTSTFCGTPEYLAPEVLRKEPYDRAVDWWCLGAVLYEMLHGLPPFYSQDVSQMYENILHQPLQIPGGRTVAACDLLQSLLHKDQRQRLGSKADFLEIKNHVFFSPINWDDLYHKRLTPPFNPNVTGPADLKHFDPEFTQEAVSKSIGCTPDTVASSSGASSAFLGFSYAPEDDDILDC
Description: as §1, §2, §3, §4, §5, §6

PRKX = molecular target: T3, PRKX (Homo sapiens, UniProt P51817); settings: ATP at apparent KM
T3 sequence (P51817 1-358): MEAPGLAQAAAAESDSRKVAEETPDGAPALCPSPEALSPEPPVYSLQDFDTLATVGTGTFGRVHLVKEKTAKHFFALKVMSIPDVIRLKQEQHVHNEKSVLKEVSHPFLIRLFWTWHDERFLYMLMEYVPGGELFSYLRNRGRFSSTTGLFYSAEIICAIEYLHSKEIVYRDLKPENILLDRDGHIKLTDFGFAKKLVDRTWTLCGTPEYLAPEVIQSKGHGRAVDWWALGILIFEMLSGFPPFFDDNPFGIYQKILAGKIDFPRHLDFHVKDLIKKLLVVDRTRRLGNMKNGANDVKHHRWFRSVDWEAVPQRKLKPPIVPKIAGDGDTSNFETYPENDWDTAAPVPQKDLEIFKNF
Description: as §1, §2, §3, §4, §5, §6

PDGFRA (PDGFR alpha) = PDGFRA (PDGFR alpha) (Homo sapiens, UniProt P16234); settings: ATP at apparent KM
Chain of PDGFRA (PDGFR alpha) (P16234 24-1089): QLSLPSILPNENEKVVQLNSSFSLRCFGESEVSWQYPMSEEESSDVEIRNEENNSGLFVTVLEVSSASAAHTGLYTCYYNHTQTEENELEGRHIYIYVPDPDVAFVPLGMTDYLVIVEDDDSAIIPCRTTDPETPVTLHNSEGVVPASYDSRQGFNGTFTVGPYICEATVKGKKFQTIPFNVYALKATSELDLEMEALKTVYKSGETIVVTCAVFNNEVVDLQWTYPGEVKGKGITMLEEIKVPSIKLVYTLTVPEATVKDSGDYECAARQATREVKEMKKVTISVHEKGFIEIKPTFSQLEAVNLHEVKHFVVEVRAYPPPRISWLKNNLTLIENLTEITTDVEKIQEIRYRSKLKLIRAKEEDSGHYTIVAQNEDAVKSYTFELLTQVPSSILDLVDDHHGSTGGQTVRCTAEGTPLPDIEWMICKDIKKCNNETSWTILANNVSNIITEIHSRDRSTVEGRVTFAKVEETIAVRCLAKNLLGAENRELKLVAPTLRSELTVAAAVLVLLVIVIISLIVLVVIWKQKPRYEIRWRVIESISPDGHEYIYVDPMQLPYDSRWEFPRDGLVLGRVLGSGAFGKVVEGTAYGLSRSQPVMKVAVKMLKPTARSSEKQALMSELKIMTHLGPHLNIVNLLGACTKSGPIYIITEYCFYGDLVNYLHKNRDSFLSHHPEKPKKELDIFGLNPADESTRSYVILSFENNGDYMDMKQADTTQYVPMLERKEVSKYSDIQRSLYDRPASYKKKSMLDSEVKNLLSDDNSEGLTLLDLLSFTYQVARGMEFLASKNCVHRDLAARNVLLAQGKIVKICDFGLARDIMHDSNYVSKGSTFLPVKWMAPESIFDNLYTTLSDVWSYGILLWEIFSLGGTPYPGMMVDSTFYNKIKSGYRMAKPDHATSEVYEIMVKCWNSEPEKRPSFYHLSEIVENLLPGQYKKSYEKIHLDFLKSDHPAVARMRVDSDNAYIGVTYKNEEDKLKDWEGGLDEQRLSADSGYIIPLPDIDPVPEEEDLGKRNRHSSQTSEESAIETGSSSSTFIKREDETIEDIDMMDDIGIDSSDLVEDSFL
Description: as §1, §2, §3, §4, §5, §6

TXK = molecular target: T4, TXK (Homo sapiens, UniProt P42681); settings: ATP at apparent KM
T4 sequence (P42681 1-527): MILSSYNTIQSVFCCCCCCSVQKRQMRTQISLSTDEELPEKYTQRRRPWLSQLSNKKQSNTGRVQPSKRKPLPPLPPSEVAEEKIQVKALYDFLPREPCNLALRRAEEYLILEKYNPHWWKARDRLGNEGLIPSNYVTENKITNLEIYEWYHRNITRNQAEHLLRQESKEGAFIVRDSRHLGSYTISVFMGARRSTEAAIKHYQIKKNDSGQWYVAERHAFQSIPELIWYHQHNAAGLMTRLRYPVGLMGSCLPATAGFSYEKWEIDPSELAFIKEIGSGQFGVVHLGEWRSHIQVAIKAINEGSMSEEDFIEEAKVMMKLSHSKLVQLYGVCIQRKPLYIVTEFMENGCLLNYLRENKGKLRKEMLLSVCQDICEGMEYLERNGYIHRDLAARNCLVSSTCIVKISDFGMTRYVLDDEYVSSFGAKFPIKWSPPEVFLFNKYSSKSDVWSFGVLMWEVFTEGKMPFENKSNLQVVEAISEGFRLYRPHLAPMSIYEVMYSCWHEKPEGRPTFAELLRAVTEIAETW
Description: as §1, §2, §3, §4, §5, §6

EGFR (ErbB1) = EGFR (ErbB1) (Homo sapiens, UniProt P00533); settings: ATP at apparent KM
Chain of EGFR (ErbB1) (P00533 25-1210): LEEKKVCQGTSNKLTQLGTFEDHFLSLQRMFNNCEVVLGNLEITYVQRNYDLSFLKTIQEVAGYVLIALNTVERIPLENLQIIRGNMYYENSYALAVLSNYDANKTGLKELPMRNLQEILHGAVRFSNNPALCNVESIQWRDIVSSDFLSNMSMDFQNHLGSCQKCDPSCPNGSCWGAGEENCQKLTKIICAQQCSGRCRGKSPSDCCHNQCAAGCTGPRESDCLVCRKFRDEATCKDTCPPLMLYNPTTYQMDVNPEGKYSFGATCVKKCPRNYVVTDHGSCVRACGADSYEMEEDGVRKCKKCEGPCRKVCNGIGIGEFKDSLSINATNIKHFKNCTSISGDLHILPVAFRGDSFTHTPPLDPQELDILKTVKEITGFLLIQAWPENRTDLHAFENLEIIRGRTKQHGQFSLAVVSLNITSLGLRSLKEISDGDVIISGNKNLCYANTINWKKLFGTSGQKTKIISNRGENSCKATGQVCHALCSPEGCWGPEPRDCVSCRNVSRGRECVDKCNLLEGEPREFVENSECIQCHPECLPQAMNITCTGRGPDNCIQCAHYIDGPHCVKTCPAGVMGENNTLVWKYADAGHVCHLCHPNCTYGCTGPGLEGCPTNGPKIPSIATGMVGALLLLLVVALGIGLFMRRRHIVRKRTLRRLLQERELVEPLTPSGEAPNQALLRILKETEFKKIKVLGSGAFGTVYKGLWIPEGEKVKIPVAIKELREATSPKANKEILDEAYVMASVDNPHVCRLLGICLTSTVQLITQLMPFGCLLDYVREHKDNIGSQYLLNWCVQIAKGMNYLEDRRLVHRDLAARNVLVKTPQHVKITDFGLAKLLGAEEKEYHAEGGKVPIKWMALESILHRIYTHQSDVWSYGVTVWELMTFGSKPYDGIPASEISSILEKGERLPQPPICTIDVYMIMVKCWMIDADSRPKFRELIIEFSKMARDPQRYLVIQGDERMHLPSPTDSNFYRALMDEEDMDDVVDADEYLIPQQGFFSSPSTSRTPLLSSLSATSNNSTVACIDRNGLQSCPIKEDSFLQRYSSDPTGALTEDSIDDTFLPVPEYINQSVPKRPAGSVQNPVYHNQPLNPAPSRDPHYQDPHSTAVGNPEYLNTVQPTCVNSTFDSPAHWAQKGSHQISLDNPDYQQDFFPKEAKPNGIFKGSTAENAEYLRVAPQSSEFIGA
Description: as §1, §2, §3, §4, §5, §6

Chain of AKT2 (PKB beta) (P31751 whole entry): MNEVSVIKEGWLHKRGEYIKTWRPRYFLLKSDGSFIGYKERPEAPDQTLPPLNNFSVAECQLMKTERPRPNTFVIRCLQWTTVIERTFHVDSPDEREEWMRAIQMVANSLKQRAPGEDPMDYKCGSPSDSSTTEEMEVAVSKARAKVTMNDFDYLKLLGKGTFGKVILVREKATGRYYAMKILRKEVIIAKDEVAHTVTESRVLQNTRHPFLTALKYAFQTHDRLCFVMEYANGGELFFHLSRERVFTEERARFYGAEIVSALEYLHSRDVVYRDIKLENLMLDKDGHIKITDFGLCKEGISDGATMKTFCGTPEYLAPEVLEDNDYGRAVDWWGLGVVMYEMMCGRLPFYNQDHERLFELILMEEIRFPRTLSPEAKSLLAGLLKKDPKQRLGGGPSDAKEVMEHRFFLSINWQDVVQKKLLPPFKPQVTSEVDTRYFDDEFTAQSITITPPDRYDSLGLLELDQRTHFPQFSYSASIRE

## C=CC(=O)Nc1cccc(C(=O)NC2CCN(Cc3ccc(-c4nc5cc[nH]c(=O)c5cc4-c4ccccc4)cc3)CC2)c1 [30b]
AKT2 (PKB beta)
  inhibition at 1 µM: 76%
SRC
  inhibition at 1 µM: 17%
PRKCE (PKC epsilon)
  inhibition at 1 µM: 27%
RET
  inhibition at 1 µM: 19%
FRAP1 (mTOR)
  inhibition at 1 µM: 1%
FGFR1
  inhibition at 1 µM: 10%
SGK2
  inhibition at 1 µM: 3%
PRKX
  inhibition at 1 µM: -6%
PDGFRA (PDGFR alpha)
  inhibition at 1 µM: -7%
TXK
  inhibition at 1 µM: 2%
EGFR (ErbB1)
  inhibition at 1 µM: 1%

## C=CC(=O)Nc1cc(NC(=O)NC2CCN(Cc3ccc(-c4nc5cc[nH]c(=O)c5cc4-c4ccccc4)cc3)CC2)ccc1Cl [compound 27]
AKT2 (PKB beta)
  inhibition at 1 µM: 80%
SRC
  inhibition at 1 µM: 36%
PRKCE (PKC epsilon)
  inhibition at 1 µM: 11%
RET
  inhibition at 1 µM: 26%
FRAP1 (mTOR)
  inhibition at 1 µM: -2%
FGFR1
  inhibition at 1 µM: 24%
SGK2
  inhibition at 1 µM: 4%
PRKX
  inhibition at 1 µM: 3%
PDGFRA (PDGFR alpha)
  inhibition at 1 µM: 0%
TXK
  inhibition at 1 µM: -9%
EGFR (ErbB1)
  inhibition at 1 µM: 2%

## C=CC(=O)Nc1ccc2c(c1)n(C1CCN(Cc3ccc(-c4nc5cc[nH]c(=O)c5cc4-c4ccccc4)cc3)CC1)c(=O)n2C [24b]
AKT2 (PKB beta); 1 µM, ATP at apparent KM, read-out: % inhibition
  inhibition at 1 µM: 97%
SRC
  inhibition at 1 µM: 19%
PRKCE (PKC epsilon)
  inhibition at 1 µM: 12%
RET
  inhibition at 1 µM: 10%
FRAP1 (mTOR)
  inhibition at 1 µM: 8%
FGFR1
  inhibition at 1 µM: 7%
SGK2
  inhibition at 1 µM: -1%
PRKX
  inhibition at 1 µM: -1%
PDGFRA (PDGFR alpha)
  inhibition at 1 µM: -5%
TXK
  inhibition at 1 µM: -5%
EGFR (ErbB1)
  inhibition at 1 µM: -8%
